Measured values taken from EP0186440A2, “Method for producing benzoic acid derivatives” (Takeda Chemical Industries, Ltd., priority 1984, dated 1986).
Where two headings read alike, the source gives them in different places.

Assays:
[1] = set-up: species or system male mice of Jcl:ICR strain; details: mouse, in vivo, po
Procedure: Five 5-week-old male mice of Jcl:ICR strain, weighing about 30 g each, were used. Compound A, C or E was suspended in a 5% solution of gum arabic and administered orally at the level of 0.2 ml per 10 grams body weight.

[2] = test system: synthetic leukotriene D4 (LTD4); assay: Bronchoconstriction in guinea pigs due to intravenous LTD4 (Konzett-Rössler method), compound given orally one hour before; assay type: in vivo, Guinea pigs of the Hartley strain; details: Cavia porcellus, 1 h; 50% inhibitory dose; oral, one hour before LTD4 (10 µg/kg i.v.); inhibition of overflowing volume at maximal response, 30 seconds after LTD4; read-out: ID50(p.o.)
Procedure: Guinea pigs of the Hartley strain, both male and female, with body weights of about 400 g were assigned to groups of 6-10 individuals, and the bronchoconstriction due to LTD4 was measured according to the method of Konzett-Rossler, [Konzett, H. and Rössler, R.: Naunyn-Schmidebergs Archiv für Experimentelle Pathologie und Pharmakologie, 195, 71-74 (1940).] Each guinea pig was fixed in a supine position under urethane anesthesis (1.5 g/kg, intraperitoneal) and the trachea was incised and connected to an artificial respiration apparatus, Rodent Respirator Model 680 [Harvard Apparatus Company, U.S.A.] via a cannula. The branch tube of this tracheal cannula was connected to a Bronchospasm Transducer Model 7020 [Ugobasil Biological Research Apparatus, Italy]. Under the conditions of 4 to 7 ml of air per stroke, 70 strokes per minute and a lung loading pressure of 10 cmH20, the volume of overflowing air was recorded on Rectigraph-8S (San-eiSokki Ltd., Japan) via a transducer. After administration of gallamine triethiodide (1'mg/kg, i.v.), a solution of LTD4 in physiological saline (10 µg/kg) was intravenously administered and the bronchoconstriction elicited thereby was recorded for 15 minutes. The compound was used as suspended in a 5% solution of gum arabic or dissolved in water, and administered orally in a volume of 0.2 ml per 100 c body weight one hour before LTD4 loading. […]

SMILES: CCCc1c(OCCCOc2ccc(C(=O)OCCN3CCOCC3)cc2Br)ccc(C(C)=O)c1O [C, 2-morpholinoethyl 4-[3-(4-acetyl-3-hydroxy-2-propylphenoxy)propoxy]-3-bromobenzoate]
- Autopsy after 7 days ([1]; 2000 mg/kg): did not reveal any abnormalities
- symptoms attributable to the compound (acute toxicity) ([1]; 2000 mg/kg): no symptoms

SMILES: CCCc1c(OCCCOc2ccc(C(=O)O)cc2Br)ccc(C(C)=O)c1OC(C)=O [Compound A, 4-[3-(3-acetoxy-4-acetyl-2-propylphenoxy)propoxy]-3-bromobenzoic acid]
- Autopsy after 7 days ([1]; 500 mg/kg): did not reveal any abnormalities
- symptoms attributable to the compound (acute toxicity) ([1]; 500 mg/kg): no symptoms
- ED50 [2]: 47 µmol/kg

SMILES: CCCc1c(OCCCOc2ccc(C(=O)OCCCN(C)C)cc2Br)ccc(C(C)=O)c1O [E, 3-dimethylaminopropyl 4-[3-(4-acetyl-3-hydroxy-2-propylphenoxy)propoxy]-3-bromobenzoate]
- Autopsy after 7 days ([1]; 2000 mg/kg): did not reveal any abnormalities
- symptoms attributable to the compound (acute toxicity) ([1]; 2000 mg/kg): no symptoms
